In PubChem BioAssay AID248 (DTP/NCI, 2004):
Toxic doses and inconclusive results are not listed. Cut-off read from the data, not from the text of the source: active = T/C of 150% or more; inactive = T/C below 125%.

System: L1210 leukemia ip in BDF1 mice, survival T/C
Assay: NCI In Vivo Anticancer Drug Screen. Data for tumor model L1210 Leukemia (intraperitoneal) in B6D2F1 (BDF1) mice
Conditions: endpoint: mean survival time, higher = longer survival
Method in brief: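 Transplantable tumor model; survival measured in treated vs vehicle control mice. Value = treated/control.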

[1] = dose: 100.0 mg/kg/injection, schedule: Q01DX009 (ip), vehicle: saline with Tween-80
[2] = dose: 200.0 mg/kg/injection, schedule: Q01DX009 (ip), vehicle: saline with Tween-80
[3] = dose: 400.0 mg/kg/injection, schedule: Q01DX009 (ip), vehicle: saline with Tween-80
[4] = dose: 100.0 mg/kg/injection, schedule: Q01DX009 (ip), vehicle: Klucel (hydroxypropylcellulose) (HPC)
[5] = dose: 100.0 mg/kg/injection, schedule: Q04DX003 (ip), vehicle: Klucel (hydroxypropylcellulose) (HPC)
[6] = dose: 200.0 mg/kg/injection, schedule: Q04DX003 (ip), vehicle: Klucel (hydroxypropylcellulose) (HPC)
[7] = dose: 400.0 mg/kg/injection, schedule: Q04DX003 (ip), vehicle: Klucel (hydroxypropylcellulose) (HPC)
[8] = dose: 50.0 mg/kg/injection, schedule: Q01DX009 (ip), vehicle: saline with Tween-80
[9] = dose: 100.0 mg/kg/injection, schedule: Q01DX001 (ip), vehicle: saline
[10] = dose: 200.0 mg/kg/injection, schedule: Q01DX001 (ip), vehicle: saline
[11] = dose: 400.0 mg/kg/injection, schedule: Q01DX001 (ip), vehicle: saline

Measured: T/C

NC(=O)c1ncc(-c2ccc(Cl)cc2)[nH]c1=O
inactive: [1] 91 % of control | [2] 97 % of control | [3] 97 % of control

CC12C(=O)OC3CCC1CC32 (centres undefined)
inactive: dose: 75.0 mg/kg/injection, schedule: Q04DX003 (ip), vehicle: saline 97 % of control | dose: 150.0 mg/kg/injection, schedule: Q04DX003 (ip), vehicle: saline 94 % of control | dose: 300.0 mg/kg/injection, schedule: Q04DX003 (ip), vehicle: saline 94 % of control

Cc1ccc(NC(=O)c2ccc(Cl)cc2)cc1Cl
inactive: [4] 105 % of control | [5] 94 % of control | dose: 200.0 mg/kg/injection, schedule: Q01DX009 (ip), vehicle: Klucel (hydroxypropylcellulose) (HPC) 98 % of control | [6] 94 % of control | dose: 400.0 mg/kg/injection, schedule: Q01DX009 (ip), vehicle: Klucel (hydroxypropylcellulose) (HPC) 92 % of control | [7] 104 % of control

COc1ccc(NC(=O)Nc2ccc(F)c([N+](=O)[O-])c2)c(Cl)c1
inactive: dose: 25.0 mg/kg/injection, schedule: Q01DX009 (ip), vehicle: saline with Tween-80 95 % of control | [8] 100 % of control | [1] 96 % of control

CCOC1OCN(C(C)C)CC1(C)C (centres undefined)
inactive: dose: 75.0 mg/kg/injection, schedule: Q01DX009 (ip), vehicle: saline 110 % of control | dose: 150.0 mg/kg/injection, schedule: Q01DX009 (ip), vehicle: saline 119 % of control

NC(N)=N/N=C/c1ccc[nH]1
inactive: dose: 15.0 mg/kg/injection, schedule: Q01DX Z (ip), vehicle: saline 94 % of control | dose: 30.0 mg/kg/injection, schedule: Q01DX Z (ip), vehicle: saline 99 % of control | dose: 60.0 mg/kg/injection, schedule: Q01DX Z (ip), vehicle: saline 96 % of control | dose: 120.0 mg/kg/injection, schedule: Q01DX Z (ip), vehicle: saline 91 % of control | dose: 120.0 mg/kg/injection, schedule: Q01DX Z (oral), vehicle: saline 105 % of control | dose: 240.0 mg/kg/injection, schedule: Q01DX Z (ip), vehicle: saline 93 % of control | dose: 240.0 mg/kg/injection, schedule: Q01DX Z (oral), vehicle: saline 106 % of control | dose: 480.0 mg/kg/injection, schedule: Q01DX Z (ip), vehicle: saline 98 % of control | dose: 480.0 mg/kg/injection, schedule: Q01DX Z (oral), vehicle: saline 103 % of control | dose: 960.0 mg/kg/injection, schedule: Q01DX Z (oral), vehicle: saline 103 % of control

C/C(=N\N=C(/C)c1ccc(O)cc1)c1ccc(O)cc1
inactive: [8] 96 % of control | [1] 92 % of control | [2] 89 % of control

Clc1ccc(-c2oc(-c3ccc(Cl)cc3)c3c2CC=CC3)cc1
inactive: dose: 100.0 mg/kg/injection, schedule: Q04DX003 (ip), vehicle: gum acacia 93 % of control | dose: 200.0 mg/kg/injection, schedule: Q04DX003 (ip), vehicle: gum acacia 106 % of control | dose: 400.0 mg/kg/injection, schedule: Q04DX003 (ip), vehicle: gum acacia 97 % of control

N#Cc1cnc(SCc2ccccc2)nc1N
inactive: dose: 100.0 mg/kg/injection, schedule: Q01DX001 (ip), vehicle: gum acacia 95 % of control | dose: 100.0 mg/kg/injection, schedule: Q01DX009 (ip), vehicle: gum acacia 95 % of control | dose: 200.0 mg/kg/injection, schedule: Q01DX001 (ip), vehicle: gum acacia 95 % of control | dose: 200.0 mg/kg/injection, schedule: Q01DX009 (ip), vehicle: gum acacia 98 % of control | dose: 400.0 mg/kg/injection, schedule: Q01DX001 (ip), vehicle: gum acacia 98 % of control | dose: 400.0 mg/kg/injection, schedule: Q01DX009 (ip), vehicle: gum acacia 107 % of control

CC(C)(C)OC(=O)NC(CC(=O)OCc1ccccc1)C(=O)O (centres undefined)
inactive: [4] 87 % of control | [5] 93 % of control | [6] 95 % of control | [7] 106 % of control

CCOC(=O)CC(O)(c1ccc(OC)cc1)c1ccc(OC)cc1
inactive: dose: 100.0 mg/kg/injection, schedule: Q01DX001 (ip), vehicle: carboxymethylcellulose (CMC) 92 % of control | dose: 200.0 mg/kg/injection, schedule: Q01DX001 (ip), vehicle: carboxymethylcellulose (CMC) 97 % of control | dose: 400.0 mg/kg/injection, schedule: Q01DX001 (ip), vehicle: carboxymethylcellulose (CMC) 95 % of control

CC(=O)OC1CCCc2c(O)c3c(c(O)c21)C(=O)c1ccccc1C3=O (centres undefined)
inactive: [9] 93 % of control | [10] 93 % of control | [11] 91 % of control

CC1C2CC3C(OC(=O)C13C)C2I (centres undefined)
inactive: [9] 110 % of control | [10] 96 % of control | [11] 113 % of control

CCCCN1CCC(N)=NC1=O
inactive: dose: 100.0 mg/kg/injection, schedule: Q01DX Z (ip), vehicle: saline 100 % of control | dose: 200.0 mg/kg/injection, schedule: Q01DX Z (ip), vehicle: saline 100 % of control

CC(Oc1cc(Cl)c(Cl)cc1Cl)C(=O)OCc1ccco1 (centres undefined)
inactive: [1] 110 % of control | dose: 100.0 mg/kg/injection, schedule: Q04DX002 (ip), vehicle: Klucel (hydroxypropylcellulose) (HPC) 100 % of control | [2] 100 % of control | dose: 200.0 mg/kg/injection, schedule: Q04DX002 (ip), vehicle: Klucel (hydroxypropylcellulose) (HPC) 103 % of control | [3] 104 % of control | dose: 400.0 mg/kg/injection, schedule: Q04DX002 (ip), vehicle: Klucel (hydroxypropylcellulose) (HPC) 100 % of control

O=C(O)CC1(c2ccccc2)OC(=O)c2ccccc21 (centres undefined)
inactive: dose: 50.0 mg/kg/injection, schedule: Q04DX002 (ip), vehicle: saline with Tween-80 92 % of control | dose: 100.0 mg/kg/injection, schedule: Q04DX002 (ip), vehicle: saline with Tween-80 92 % of control | dose: 200.0 mg/kg/injection, schedule: Q04DX002 (ip), vehicle: saline with Tween-80 99 % of control | dose: 400.0 mg/kg/injection, schedule: Q04DX002 (ip), vehicle: saline with Tween-80 89 % of control
